What follows are compounds tested against T1, Human CaV2.2 channels (Homo sapiens, UniProt Q00975) (assay: Fluorescent (FLIPR) assay for CaV2.2 channels using potassium depolarization to induce channel opening). Settings: 3 μM compound; 30 mM KCl assay buffer (inactivated channel state); HEK293 cells stably expressing human CaV2.2; read-out: Activity Category: %-Inhib (CaV2.2) @3 μM @30 mM KCl.
T1 construct: expressed in transfected cells; host or cells: HEK293
Assay type: cell-based
Summary of the method: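 HEK293 cells stably co-expressing human CaV2.2 with α2δ and β subunits plus Kir2.3, Fluo-4 loaded; compounds preincubated 15 min at 25 °C in 1 mM or 30 mM KCl buffer (inactivated state), pH 7.4. Depolarized by KCl addition; baseline-normalized peak fluorescence (ex 480/em 535 nm) gave inhibition.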

T1 sequence (Q00975 whole entry): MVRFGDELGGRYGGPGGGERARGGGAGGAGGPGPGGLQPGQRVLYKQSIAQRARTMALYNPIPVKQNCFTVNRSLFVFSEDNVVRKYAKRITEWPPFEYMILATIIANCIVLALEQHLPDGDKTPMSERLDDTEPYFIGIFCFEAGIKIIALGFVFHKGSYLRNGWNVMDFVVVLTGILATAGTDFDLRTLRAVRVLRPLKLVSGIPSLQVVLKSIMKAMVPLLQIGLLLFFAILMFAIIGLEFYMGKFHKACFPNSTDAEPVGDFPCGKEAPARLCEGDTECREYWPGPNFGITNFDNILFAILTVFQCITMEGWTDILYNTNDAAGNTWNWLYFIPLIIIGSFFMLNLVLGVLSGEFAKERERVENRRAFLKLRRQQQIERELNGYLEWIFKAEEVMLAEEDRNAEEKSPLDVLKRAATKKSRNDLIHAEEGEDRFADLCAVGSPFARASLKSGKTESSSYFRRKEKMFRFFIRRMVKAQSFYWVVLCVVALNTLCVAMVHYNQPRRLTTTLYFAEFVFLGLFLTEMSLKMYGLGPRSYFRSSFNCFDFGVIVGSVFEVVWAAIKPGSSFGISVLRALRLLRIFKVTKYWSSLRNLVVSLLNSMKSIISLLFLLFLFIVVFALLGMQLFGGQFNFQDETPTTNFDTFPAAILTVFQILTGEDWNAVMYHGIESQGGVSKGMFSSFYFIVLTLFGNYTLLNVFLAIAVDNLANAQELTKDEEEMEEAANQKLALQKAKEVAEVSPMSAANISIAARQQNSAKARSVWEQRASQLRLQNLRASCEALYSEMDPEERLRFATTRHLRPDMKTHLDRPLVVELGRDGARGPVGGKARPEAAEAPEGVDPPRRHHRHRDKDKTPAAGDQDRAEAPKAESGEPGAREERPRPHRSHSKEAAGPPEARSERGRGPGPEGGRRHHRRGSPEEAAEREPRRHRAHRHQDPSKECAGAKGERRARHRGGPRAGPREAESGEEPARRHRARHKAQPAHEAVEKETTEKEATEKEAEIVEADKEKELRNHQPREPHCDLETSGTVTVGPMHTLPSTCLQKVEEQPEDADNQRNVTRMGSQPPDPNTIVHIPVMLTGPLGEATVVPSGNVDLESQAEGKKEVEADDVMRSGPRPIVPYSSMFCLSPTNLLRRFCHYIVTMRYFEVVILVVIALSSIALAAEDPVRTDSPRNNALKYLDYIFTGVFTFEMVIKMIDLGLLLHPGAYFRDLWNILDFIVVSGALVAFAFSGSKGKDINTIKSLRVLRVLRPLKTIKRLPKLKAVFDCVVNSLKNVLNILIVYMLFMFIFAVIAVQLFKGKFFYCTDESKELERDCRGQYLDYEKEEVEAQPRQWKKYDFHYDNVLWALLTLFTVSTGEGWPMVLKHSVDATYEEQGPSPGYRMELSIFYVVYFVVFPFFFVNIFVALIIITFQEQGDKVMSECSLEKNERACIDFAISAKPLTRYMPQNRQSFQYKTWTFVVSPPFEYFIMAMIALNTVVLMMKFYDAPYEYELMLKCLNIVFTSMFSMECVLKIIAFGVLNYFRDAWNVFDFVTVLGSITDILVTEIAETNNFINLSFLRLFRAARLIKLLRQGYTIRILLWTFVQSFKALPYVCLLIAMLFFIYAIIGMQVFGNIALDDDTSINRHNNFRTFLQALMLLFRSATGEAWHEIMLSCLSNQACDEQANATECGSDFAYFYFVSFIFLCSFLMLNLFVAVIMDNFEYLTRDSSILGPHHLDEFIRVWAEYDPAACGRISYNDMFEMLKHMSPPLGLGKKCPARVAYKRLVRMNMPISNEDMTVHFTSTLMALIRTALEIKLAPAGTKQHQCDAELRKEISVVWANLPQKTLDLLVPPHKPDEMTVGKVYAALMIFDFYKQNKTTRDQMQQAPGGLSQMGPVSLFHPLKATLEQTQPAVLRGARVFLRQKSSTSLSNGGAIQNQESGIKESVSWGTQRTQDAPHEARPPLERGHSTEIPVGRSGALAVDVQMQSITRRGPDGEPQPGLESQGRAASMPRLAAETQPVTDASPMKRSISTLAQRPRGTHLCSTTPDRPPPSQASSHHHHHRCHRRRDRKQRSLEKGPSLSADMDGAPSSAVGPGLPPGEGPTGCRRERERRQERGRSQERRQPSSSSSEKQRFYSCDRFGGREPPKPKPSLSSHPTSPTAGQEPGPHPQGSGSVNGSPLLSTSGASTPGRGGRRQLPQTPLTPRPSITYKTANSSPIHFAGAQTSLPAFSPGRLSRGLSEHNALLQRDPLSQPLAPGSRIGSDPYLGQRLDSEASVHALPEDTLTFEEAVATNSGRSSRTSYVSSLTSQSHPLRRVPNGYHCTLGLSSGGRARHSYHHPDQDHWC
T1 sequence (P54284 whole entry, further chain): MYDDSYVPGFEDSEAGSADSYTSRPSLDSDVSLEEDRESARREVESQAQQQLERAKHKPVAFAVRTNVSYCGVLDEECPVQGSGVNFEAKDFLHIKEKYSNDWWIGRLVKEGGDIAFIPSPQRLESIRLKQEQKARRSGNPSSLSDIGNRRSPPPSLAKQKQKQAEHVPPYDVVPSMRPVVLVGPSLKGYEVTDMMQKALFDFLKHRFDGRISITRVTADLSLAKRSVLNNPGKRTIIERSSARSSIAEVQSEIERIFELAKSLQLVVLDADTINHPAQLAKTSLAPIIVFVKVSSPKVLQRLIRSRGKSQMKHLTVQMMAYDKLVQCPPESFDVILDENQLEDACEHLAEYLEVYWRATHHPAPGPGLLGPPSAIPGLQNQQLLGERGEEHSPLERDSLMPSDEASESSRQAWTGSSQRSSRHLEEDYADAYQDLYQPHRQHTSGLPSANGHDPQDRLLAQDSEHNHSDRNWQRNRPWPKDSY
T1 sequence (P54289 25-1103, further chain): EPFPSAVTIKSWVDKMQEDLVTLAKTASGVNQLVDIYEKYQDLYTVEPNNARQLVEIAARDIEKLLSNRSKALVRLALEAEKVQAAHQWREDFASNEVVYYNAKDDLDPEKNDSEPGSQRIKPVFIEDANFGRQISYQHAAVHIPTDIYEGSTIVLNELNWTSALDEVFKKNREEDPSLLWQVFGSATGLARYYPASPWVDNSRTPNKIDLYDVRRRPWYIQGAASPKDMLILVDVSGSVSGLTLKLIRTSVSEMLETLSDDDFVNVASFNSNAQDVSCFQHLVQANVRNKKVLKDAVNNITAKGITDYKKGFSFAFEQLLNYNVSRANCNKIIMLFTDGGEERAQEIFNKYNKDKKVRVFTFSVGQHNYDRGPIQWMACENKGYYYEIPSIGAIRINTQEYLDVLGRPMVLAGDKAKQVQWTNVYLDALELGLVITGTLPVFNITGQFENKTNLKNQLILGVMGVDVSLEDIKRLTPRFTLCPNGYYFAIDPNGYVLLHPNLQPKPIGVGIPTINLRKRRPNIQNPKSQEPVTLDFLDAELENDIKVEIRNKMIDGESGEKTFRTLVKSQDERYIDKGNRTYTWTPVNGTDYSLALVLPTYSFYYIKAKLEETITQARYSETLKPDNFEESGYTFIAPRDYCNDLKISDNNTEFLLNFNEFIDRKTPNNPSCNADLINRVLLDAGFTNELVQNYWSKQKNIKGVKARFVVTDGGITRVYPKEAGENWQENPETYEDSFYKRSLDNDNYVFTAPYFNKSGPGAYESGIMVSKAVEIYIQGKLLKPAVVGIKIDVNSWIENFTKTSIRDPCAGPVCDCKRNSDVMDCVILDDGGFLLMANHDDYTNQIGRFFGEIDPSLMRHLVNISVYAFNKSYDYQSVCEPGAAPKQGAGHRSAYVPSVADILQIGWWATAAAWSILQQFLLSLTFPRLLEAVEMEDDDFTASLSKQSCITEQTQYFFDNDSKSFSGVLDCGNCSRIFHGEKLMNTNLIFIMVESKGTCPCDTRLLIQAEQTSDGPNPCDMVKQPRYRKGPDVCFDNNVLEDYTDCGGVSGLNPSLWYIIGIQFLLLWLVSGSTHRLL

First: Cc1c(-c2ccc(Cl)cn2)c(C(=O)N(C)CCS(C)(=O)=O)n(C(C)C)c1C(F)(F)F [Example 118, 3-(5-Chloro-pyridin-2-yl)-1-isopropyl-N,4-dimethyl-N-(2-methylsulfonyl-ethyl)-5-(trifluoromethyl)-1H-pyrrole-2-carboxylic acid amide]
Second: Cc1c(-c2ccc(Cl)cc2)c(C(=O)N(C)CCS(C)(=O)=O)n(CC(C)C)c1C(F)(F)F [Example 061, 3-(4-Chlorophenyl)-N,4-dimethyl-1-(2-methyl-propyl)-N-(2-methylsulfonyl-ethyl)-5-(trifluoromethyl)-1H-pyrrole-2-carboxylic acid amide]
The inhibition at 3 µM of the first is lower: 40 to 75% for the first, over 95% for the second.

`Cc1c(-c2ccc(Cl)cc2)c(C(=O)N(C)Cc2ccnn2C)n(C(C)C)c1C(F)(F)F` [Example 111, 3-(4-Chlorophenyl)-1-isopropyl-N,4-dimethyl-N-[(2-methyl-2H-pyrazol-3-yl)-methyl]-5-(trifluoromethyl)-1H-pyrrole-2-carboxylic acid amide] and `Cc1c(-c2ccc(Cl)cc2)c(C(=O)N(C)CC(C)(C)C(N)=O)n(C(C)C)c1C(F)(F)F` [Example 105, N-(2-Carbamoyl-2-methyl-propyl)-3-(4-chlorophenyl)-1-isopropyl-N,4-dimethyl-5-(trifluoromethyl)-1H-pyrrole-2-carboxylic acid amide] fall in the same range of inhibition at 3 µM: 75 to 95% for the first, 75 to 95% for the second.

`Cc1c(-c2ccc(Cl)cc2)c(C(=O)N2CCOCC2)n(CC2CCOCC2)c1C(F)(F)F` [Example 097, [3-(4-Chlorophenyl)-4-methyl-1-(tetrahydro-pyran-4-yl-methyl)-5-(trifluoromethyl)-1H-pyrrol-2-yl]-morpholin-4-yl-methanone] and `Cc1c(-c2ccc(Cl)cc2)c(C(=O)N2CCOCC2)n(CC2(C)CC2)c1C(F)(F)F` [Example 087, [3-(4-Chlorophenyl)-4-methyl-1-[(1-methyl-cyclopropyl)-methyl]-5-(trifluoromethyl)-1H-pyrrol-2-yl]-morpholin-4-yl-methanone] cannot be ordered by inhibition at 3 µM: over 95% for the first, over 95% for the second.

`Cc1c(-c2ccc(Cl)cc2)c(C(=O)N(C)CCS(C)(=O)=O)n(C2CC2)c1C(F)(F)F` [Example 041, 3-(4-Chlorophenyl)-1-cyclopropyl-N,4-dimethyl-N-(2-methylsulfonyl-ethyl)-5-(trifluoromethyl)-1H-pyrrole-2-carboxylic acid amide] and `Cc1c(-c2ccc(Cl)cc2)c(C(=O)N(C)CC(C)(C)O)n(C2CC2)c1C(F)(F)F` [Example 018, 3-(4-Chlorophenyl)-1-cyclopropyl-N-(2-hydroxy-2-methyl-propyl)-N,4-dimethyl-5-(trifluoromethyl)-1H-pyrrole-2-carboxylic acid amide] fall in the same range of inhibition at 3 µM: 75 to 95% for the first, 75 to 95% for the second.

First: Cc1c(-c2ccc(Cl)cc2)c(C(=O)N2CCOC(C)(C)C2)n(CC2CCC2)c1C(F)(F)F [Example 085, [3-(4-Chlorophenyl)-1-(cyclobutyl-methyl)-4-methyl-5-(trifluoromethyl)-1H-pyrrol-2-yl]-(2,2-dimethyl-morpholin-4-yl)-methanone]
Second: Cc1c(-c2ccc(Cl)cc2)c(C(=O)N2CCOC(C)(C)C2)n(CC2CC2)c1C(F)(F)F [Example 084, [3-(4-Chlorophenyl)-1-(cyclopropyl-methyl)-4-methyl-5-(trifluoromethyl)-1H-pyrrol-2-yl]-(2,2-dimethyl-morpholin-4-yl)-methanone]
The inhibition at 3 µM of the first is lower: 75 to 95% for the first, over 95% for the second.

Compared with `Cc1cc(CN(C)C(=O)c2c(-c3ncc(Cl)cn3)c(C)c(C(F)(F)F)n2C(C)C)no1` [Example 123, 3-(5-Chloro-pyrimidin-2-yl)-1-isopropyl-N,4-dimethyl-N-[(5-methyl-isoxazol-3-yl)-methyl]-5-(trifluoromethyl)-1H-pyrrole-2-carboxylic acid amide], `Cc1c(-c2ccc(Cl)cc2F)c(C(=O)N(C)Cc2ccncn2)n(C2CC2)c1C(F)(F)F` [Example 021, 3-(4-Chloro-2-fluoro-phenyl)-1-cyclopropyl-N,4-dimethyl-N-(pyrimidin-4-yl-methyl)-5-(trifluoromethyl)-1H-pyrrole-2-carboxylic acid amide] is higher in inhibition at 3 µM: 75 to 95% for the first, over 95% for the second.

`Cc1c(-c2ccc(Cl)cn2)c(C(=O)N2CCN(C(=O)NC(C)(C)C)CC2)n(C(C)C)c1C(F)(F)F` [Example 129, N-tert-Butyl-4-[3-(5-chloro-pyridin-2-yl)-1-isopropyl-4-methyl-5-(trifluoromethyl)-1H-pyrrole-2-carbonyl]-piperazine-1-carboxylic acid amide] and `Cc1c(-c2ccc(Cl)cc2)c(C(=O)N2CCN(C(=O)NC(C)(C)C)CC2)n(C(C)C)c1C(F)(F)F` [Example 131, N-tert-Butyl-4-[3-(4-chlorophenyl)-1-isopropyl-4-methyl-5-(trifluoromethyl)-1H-pyrrole-2-carbonyl]-piperazine-1-carboxylic acid amide] fall in the same range of inhibition at 3 µM: 75 to 95% for the first, 75 to 95% for the second.

First: CN(C(=O)c1c(-c2ccc(F)cc2)cc(C(F)(F)F)n1CC1CCCO1)C1CCS(=O)(=O)C1 (centres unmarked) [Example 071, N-(1,1-Dioxo-thiolan-3-yl)-3-(4-fluorophenyl)-N-methyl-1-(tetrahydro-furan-2-yl-methyl)-5-(trifluoromethyl)-1H-pyrrole-2-carboxylic acid amide]
Second: CN(CC(C)(C)C)C(=O)c1c(-c2ccc(Cl)cc2)cc(C(F)(F)F)n1CC1CCCO1 (centres unmarked) [Example 083, 3-(4-Chlorophenyl)-N-(2,2-dimethyl-propyl)-N-methyl-1-(tetrahydro-furan-2-yl-methyl)-5-(trifluoromethyl)-1H-pyrrole-2-carboxylic acid amide]
The inhibition at 3 µM of the first is lower: 40 to 75% for the first, 75 to 95% for the second.

Compared with `Cc1c(-c2ccc(Cl)cc2)c(C(=O)N(C)C(C)C)n(CC(C)C)c1C(F)(F)F` [Example 109, 3-(4-Chlorophenyl)-N-isopropyl-N,4-dimethyl-1-(2-methyl-propyl)-5-(trifluoromethyl)-1H-pyrrole-2-carboxylic acid amide], `Cc1c(-c2ccc(Cl)cc2)c(C(=O)N(C)CC(C)(C)C#N)n(CC(C)C)c1C(F)(F)F` [Example 067, 3-(4-Chlorophenyl)-N-(2-cyano-2-methyl-propyl)-N,4-dimethyl-1-(2-methyl-propyl)-5-(trifluoromethyl)-1H-pyrrole-2-carboxylic acid amide] is lower in inhibition at 3 µM: 75 to 95% for the first, 40 to 75% for the second.

`CC(C)Cn1c(C(F)(F)F)cc(-c2ccc(F)cc2)c1C(=O)NC1CC1` [Example 066, N-Cyclopropyl-3-(4-fluorophenyl)-1-(2-methyl-propyl)-5-(trifluoromethyl)-1H-pyrrole-2-carboxylic acid amide] and `CC(C)Cn1c(C(F)(F)F)cc(-c2ccc(F)cc2)c1C(=O)N1CCOC(C)(C)C1` [Example 045, (2,2-Dimethyl-morpholin-4-yl)-[3-(4-fluorophenyl)-1-(2-methyl-propyl)-5-(trifluoromethyl)-1H-pyrrol-2-yl]-methanone] fall in the same range of inhibition at 3 µM: 75 to 95% for the first, 75 to 95% for the second.

First: Cc1c(-c2ccc(Cl)cc2)c(C(=O)N(C)C2(C(N)=O)CC2)n(C2CC2)c1C(F)(F)F [Example 007, N-(1-Carbamoyl-cyclopropyl)-3-(4-chlorophenyl)-1-cyclopropyl-N,4-dimethyl-5-(trifluoromethyl)-1H-pyrrole-2-carboxylic acid amide]
Second: Cc1c(-c2ccc(Cl)cc2)c(C(=O)N(C)CC(C)(C)C)n(C2CC2)c1C(F)(F)F [Example 039, 3-(4-Chlorophenyl)-1-cyclopropyl-N-(2,2-dimethyl-propyl)-N,4-dimethyl-5-(trifluoromethyl)-1H-pyrrole-2-carboxylic acid amide]
The inhibition at 3 µM of the first is lower: 40 to 75% for the first, 75 to 95% for the second.

`CCn1c(C(=O)N(C)CC(C)(C)C)c(-c2ccc(Cl)cc2)c(C)c1C(F)(F)F` [Example 005, 3-(4-Chlorophenyl)-N-(2,2-dimethyl-propyl)-1-ethyl-N,4-dimethyl-5-(trifluoromethyl)-1H-pyrrole-2-carboxylic acid amide] and `Cc1c(-c2ccc(Cl)cc2)c(C(=O)N(C)C2CCNCC2(C)C)n(C(C)C)c1C(F)(F)F` (centres unmarked) [Example 135, 3-(4-Chlorophenyl)-N-(3,3-dimethyl-piperidin-4-yl)-1-isopropyl-N,4-dimethyl-5-(trifluoromethyl)-1H-pyrrole-2-carboxylic acid amide] fall in the same range of inhibition at 3 µM: 40 to 75% for the first, 40 to 75% for the second.

First: Cc1c(-c2ccc(Cl)cc2)c(C(=O)N2CC3CC2CO3)n(CC(C)C)c1C(F)(F)F (centres unmarked) [Example 104, [3-(4-Chlorophenyl)-4-methyl-1-(2-methyl-propyl)-5-(trifluoromethyl)-1H-pyrrol-2-yl]-(2-oxa-5-azabicyclo[2.2.1]heptan-5-yl)-methanone]
Second: Cc1c(-c2ccc(Cl)cc2)c(C(=O)N2CCOCC2)n(CCS(C)(=O)=O)c1C(F)(F)F [Example 099, [3-(4-Chlorophenyl)-4-methyl-1-(2-methylsulfonyl-ethyl)-5-(trifluoromethyl)-1H-pyrrol-2-yl]-morpholin-4-yl-methanone]
The inhibition at 3 µM of the first is higher: over 95% for the first, 40 to 75% for the second.

`COc1ccc(CN(C)C(=O)c2c(-c3ccc(Cl)cc3)c(C)c(C(F)(F)F)n2C2CC2)cc1` [Example 010, 3-(4-Chlorophenyl)-1-cyclopropyl-N-[(4-methoxyphenyl)-methyl]-N,4-dimethyl-5-(trifluoromethyl)-1H-pyrrole-2-carboxylic acid amide] and `Cc1c(-c2ccc(Cl)cc2)c(C(=O)N(C)C2CCS(=O)(=O)CC2)n(C2CC2)c1C(F)(F)F` [Example 008, 3-(4-Chlorophenyl)-1-cyclopropyl-N-(1,1-dioxo-thian-4-yl)-N,4-dimethyl-5-(trifluoromethyl)-1H-pyrrole-2-carboxylic acid amide] fall in the same range of inhibition at 3 µM: 75 to 95% for the first, 75 to 95% for the second.

`Cc1c(-c2ccc(Cl)cc2)c(C(=O)N2CCOC(C)(C)C2)n(C2CCC2)c1C(F)(F)F` [Example 042, [3-(4-Chlorophenyl)-1-cyclobutyl-4-methyl-5-(trifluoromethyl)-1H-pyrrol-2-yl]-(2,2-dimethyl-morpholin-4-yl)-methanone] showed an inhibition at 3 µM of 75 to 95%.

— patent US20160289186A1, “FLUOROMETHYL-SUBSTITUTED PYRROLE CA[…]” (Grunenthal GmbH, priority 2013, published 2016)
